Data set [1] addresses T1, JAK3 (Homo sapiens, UniProt P52333).
T1 sequence (P52333 1-1124): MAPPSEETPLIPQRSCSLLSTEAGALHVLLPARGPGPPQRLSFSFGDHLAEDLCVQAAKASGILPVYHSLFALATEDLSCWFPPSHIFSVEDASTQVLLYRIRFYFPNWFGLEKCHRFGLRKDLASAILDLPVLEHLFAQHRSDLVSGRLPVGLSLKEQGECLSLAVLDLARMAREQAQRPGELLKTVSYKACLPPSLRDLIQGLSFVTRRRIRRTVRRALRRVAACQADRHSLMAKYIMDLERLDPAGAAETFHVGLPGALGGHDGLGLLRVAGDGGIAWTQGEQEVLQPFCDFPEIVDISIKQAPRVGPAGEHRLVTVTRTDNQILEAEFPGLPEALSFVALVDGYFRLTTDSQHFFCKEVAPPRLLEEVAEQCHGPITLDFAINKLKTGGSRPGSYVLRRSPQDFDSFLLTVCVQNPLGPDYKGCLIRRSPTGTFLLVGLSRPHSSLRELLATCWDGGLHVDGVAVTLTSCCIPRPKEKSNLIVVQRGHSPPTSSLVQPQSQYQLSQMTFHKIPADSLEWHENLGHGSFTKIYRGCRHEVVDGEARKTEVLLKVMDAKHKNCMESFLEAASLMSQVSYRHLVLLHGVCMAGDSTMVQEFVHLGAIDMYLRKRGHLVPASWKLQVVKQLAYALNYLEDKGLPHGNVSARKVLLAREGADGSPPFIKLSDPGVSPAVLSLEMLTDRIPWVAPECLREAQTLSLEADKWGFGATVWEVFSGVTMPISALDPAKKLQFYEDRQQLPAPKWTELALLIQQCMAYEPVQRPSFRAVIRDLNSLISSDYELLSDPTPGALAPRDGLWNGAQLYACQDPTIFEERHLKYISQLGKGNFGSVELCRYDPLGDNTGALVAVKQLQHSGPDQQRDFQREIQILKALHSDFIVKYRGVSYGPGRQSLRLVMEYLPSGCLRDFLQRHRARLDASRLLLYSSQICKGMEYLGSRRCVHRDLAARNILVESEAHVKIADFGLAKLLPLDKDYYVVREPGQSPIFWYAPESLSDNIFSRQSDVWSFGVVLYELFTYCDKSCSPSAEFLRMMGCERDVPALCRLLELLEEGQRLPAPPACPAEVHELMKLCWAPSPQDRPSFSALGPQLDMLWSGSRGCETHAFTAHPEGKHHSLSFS
Particulars: cited from earlier work.

In data set [2] the target is JAK1 (Homo sapiens, UniProt P23458). The settings on record: cited from earlier work.
In data set [3] the target is JAK2 (Homo sapiens, UniProt O60674). The settings on record: cited from earlier work.
Data set [4] addresses TYK2 (Homo sapiens, UniProt P29597). The settings on record: cited from earlier work.
In data set [5] the test system is panel of 38 non-JAK kinases. Particulars: cited from earlier work.
The target in data set [6] is EGFR kinase (Homo sapiens, UniProt P00533). Particulars: measured value; read-out: IC50 in EGFR kinase inhibition assays; cited from earlier work.
The nature of data set [7]: 14-day oral toxicity and auditory brainstem response (ABR) thresholds in mice. In kind it is in vivo, C57BL/6 mice. The method, then: Auditory brainstem response (ABR) thresholds were recorded for 3 frequencies (8 kHz, 16 kHz, and 32 kHz) before and after a 14-day MMB treatment protocol. […] Statistical analysis was done with repeated measures ANOVA between groups.
4-week-old C57BL/6 mice obtained from The Jackson Laboratory were used, with a mix of males and females across experiments. Mice were administered a 14-day Momelotinib treatment protocol. Auditory Brainstem Response thresholds were recorded at 8 kHz, 16 kHz, and 32 kHz for a baseline sample of mice and the mice administered Momelotinib.

For data set [8], the system named is outer hair cells of cochlear explants of P3 FVB mice. Description: Outer hair cell survival in whole-mount cochlear explants treated with aminoglycosides. In kind it is cell-based, mouse. The method, then: A) Representative confocal images of the middle turn of whole-mount cochlear explants from P3 FVB mice treated with medium alone, […] gentamicin, 0.2 μM Momelotinib and […] gentamicin for 24 h. […] HCs are labeled with phalloidin. […] (Mann-Whitney U Test, *P<0.05, **P<0.01) shown in a micromolar concentration.
Now referring to FIG. 2A-B, Momelotinib protects from aminoglycoside toxicity in cochlear explants of P3 FVB mice. FVB mice were bred in the Creighton University animal facility. Procedures were approved by the IACUC committee of the Creighton University. 2A) Inner ears were collected from the post-natal day 3 (P3) FVB mice and transferred onto a filter (Millicell, PICM03050; Millipore) soaked in culturing medium. The filter was placed in 6-well culture plates with 1.2 mL medium outside the filter. The culturing medium is DMEM (10565-018; gibco) with 1% FBS (16000-044; gibco), 500 μL ampicillin (A5354; Sigma), 100 μL N-2 supplement (17502-048, gibco) and 100 μL B-27 supplement (17504-044, gibco). After culturing for 24 h at 37° C. in 5% CO2, 1 mL culturing medium with MMB at 0.2 μM, […] MMB alone or without MMB and added both inside and outside the filter to preincubate for another 1 h before adding gentamicin solution. A 50 μg/mL gentamicin (G1397, Sigma) was chosen to induce around 35% hair cell death after incubation for 24 h at 37° C. For compound CYT-387 or MMB (A10263, AdooQ). The procedures were performed under sterile condition in the culture hood. Cochleae were then fixed with 4% PFA for 30 min and stained with Alexa Fluor 555 phalloidin in to determine the survival rate of the hair cells. All the cochleae images were taken with Zeiss 700 confocal microscopy. […] The survival OHCs were then normalized to 100 μm length to further compare between different experimental conditions. 2B) OHC survival (OHC number per 100 μm length of cochlear middle turn) after treatment with Momelotinib at 0.0016, 0.008, 0.04, 0.2, 1.0, 5.0, 10.0 and 20.0 μM for 1 hour and co-incubated with 100 μM GM for 1 hour, or co-incubated with 600 μM kanamycin (K0254, Sigma) for 1 hour. […]

Data set [9] deals with zebrafish lateral line neuromast hair cells. The experiment in a line: Zebrafish lateral line neuromast hair cell counts after aminoglycoside. In kind it is in vivo, Danio rerio. The settings on record: 5dpf larvae, 1 hour pre-incubation 0.002-13.3 μM. The method, then:
. Each treatment was pretreated with MMB at the prescribed doses prior to co-treatment with the aminoglycoside. Control animal were treated with DMSO (−) or KM or GM alone (+) Animals were then fixed and immunostained for GFP and otoferlin. Quantification was done by assessing three neuromasts in the same anatomic location of each animal (n=5). The data is plotted as mean+SD. Statistical testing was done with One-way ANOVA and Dunnett post-hoc test (*P<0.05, **P<0.01,***P<0.001).
FIG. 4A-B show Fedratinib (FED) protected zebrafish mechanosensory hair cells against kanamycin (KM) in vivo. 5dpf Tg(Brn3c:mGFP) larvae were used for the experiments. Each treatment was pretreated FED at the prescribed doses prior to co-treatment with the aminoglycoside. […] Control animal were treated with DMSO (−) or KM alone (+) Animals were then fixed and immunostained for GFP and otoferlin. Quantification was done by assessing three neuromasts in the same anatomic location of each animal (n=5). […]
These two markers were used to detect and count neuromast HCs to reduce the chances of missing some of the HCs after the treatment since we previously noticed that incubation with the compounds can affect GFP expression more difficult to detect under a fluorescence microscope (26). […] Compounds were then evaluated on efficiency and potency, with the top-rated compounds showing high protection at lower concentrations. […]

Where a name gives a salt, the structure may show the parent alone. Read-outs that look alike come from different tables or passages of the source.

By IC50 is commonly meant the midpoint of a concentration-inhibition curve.

Chain of JAK1 (P23458 whole entry, species assumed): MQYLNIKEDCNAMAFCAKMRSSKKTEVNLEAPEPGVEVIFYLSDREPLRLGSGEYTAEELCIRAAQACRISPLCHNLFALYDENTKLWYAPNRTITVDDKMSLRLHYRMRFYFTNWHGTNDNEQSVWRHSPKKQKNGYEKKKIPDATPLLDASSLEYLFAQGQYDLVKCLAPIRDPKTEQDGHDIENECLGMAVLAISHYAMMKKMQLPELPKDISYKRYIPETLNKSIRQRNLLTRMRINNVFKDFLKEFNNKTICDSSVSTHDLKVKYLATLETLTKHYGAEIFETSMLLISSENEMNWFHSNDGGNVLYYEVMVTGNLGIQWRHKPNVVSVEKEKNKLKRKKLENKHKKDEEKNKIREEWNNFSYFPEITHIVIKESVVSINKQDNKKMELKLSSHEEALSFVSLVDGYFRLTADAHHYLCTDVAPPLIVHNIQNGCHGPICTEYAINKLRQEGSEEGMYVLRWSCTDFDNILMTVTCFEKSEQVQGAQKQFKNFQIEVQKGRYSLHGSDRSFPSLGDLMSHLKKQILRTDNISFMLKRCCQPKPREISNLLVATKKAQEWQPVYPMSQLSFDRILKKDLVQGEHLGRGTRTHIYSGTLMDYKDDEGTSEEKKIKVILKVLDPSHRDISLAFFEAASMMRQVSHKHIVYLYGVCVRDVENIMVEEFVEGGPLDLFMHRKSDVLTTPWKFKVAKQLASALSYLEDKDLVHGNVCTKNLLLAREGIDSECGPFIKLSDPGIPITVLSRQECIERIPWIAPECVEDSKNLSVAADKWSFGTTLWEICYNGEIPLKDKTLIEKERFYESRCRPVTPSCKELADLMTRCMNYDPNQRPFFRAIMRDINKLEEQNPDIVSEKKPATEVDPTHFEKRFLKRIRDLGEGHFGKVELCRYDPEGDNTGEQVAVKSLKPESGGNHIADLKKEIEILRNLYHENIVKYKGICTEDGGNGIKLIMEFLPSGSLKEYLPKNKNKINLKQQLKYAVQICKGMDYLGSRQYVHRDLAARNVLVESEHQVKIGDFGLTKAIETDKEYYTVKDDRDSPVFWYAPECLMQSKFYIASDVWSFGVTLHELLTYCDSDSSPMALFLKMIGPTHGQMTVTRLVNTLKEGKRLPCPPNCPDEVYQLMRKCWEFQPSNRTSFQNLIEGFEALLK
Chain of JAK2 (O60674 whole entry, species assumed): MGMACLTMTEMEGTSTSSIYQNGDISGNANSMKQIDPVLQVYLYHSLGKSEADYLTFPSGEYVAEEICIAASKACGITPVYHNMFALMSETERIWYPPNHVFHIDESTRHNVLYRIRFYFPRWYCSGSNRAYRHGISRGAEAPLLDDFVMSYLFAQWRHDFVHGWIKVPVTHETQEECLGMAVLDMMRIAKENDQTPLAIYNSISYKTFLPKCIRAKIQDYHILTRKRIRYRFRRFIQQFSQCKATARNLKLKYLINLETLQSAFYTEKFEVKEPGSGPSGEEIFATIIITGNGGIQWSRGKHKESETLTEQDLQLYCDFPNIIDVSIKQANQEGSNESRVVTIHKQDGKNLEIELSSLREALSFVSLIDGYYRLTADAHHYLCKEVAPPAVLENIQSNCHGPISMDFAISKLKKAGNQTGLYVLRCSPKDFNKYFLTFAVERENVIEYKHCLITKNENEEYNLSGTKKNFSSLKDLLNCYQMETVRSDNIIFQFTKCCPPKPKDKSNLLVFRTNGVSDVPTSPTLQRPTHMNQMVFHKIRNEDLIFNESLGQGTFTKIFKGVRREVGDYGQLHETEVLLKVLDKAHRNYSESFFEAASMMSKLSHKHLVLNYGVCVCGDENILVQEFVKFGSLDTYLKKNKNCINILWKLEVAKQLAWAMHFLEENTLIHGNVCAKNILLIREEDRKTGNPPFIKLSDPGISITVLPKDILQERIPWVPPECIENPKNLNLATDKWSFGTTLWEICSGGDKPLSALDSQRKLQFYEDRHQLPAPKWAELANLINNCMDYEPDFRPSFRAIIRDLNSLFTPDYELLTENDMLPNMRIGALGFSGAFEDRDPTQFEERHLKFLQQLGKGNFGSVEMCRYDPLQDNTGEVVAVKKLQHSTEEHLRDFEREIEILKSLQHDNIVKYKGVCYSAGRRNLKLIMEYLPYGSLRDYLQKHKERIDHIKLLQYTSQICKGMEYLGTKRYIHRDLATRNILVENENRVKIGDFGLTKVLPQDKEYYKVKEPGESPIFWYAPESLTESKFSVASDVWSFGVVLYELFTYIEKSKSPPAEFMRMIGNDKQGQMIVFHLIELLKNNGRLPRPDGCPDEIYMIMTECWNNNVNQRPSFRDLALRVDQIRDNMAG
Chain of TYK2 (P29597 whole entry): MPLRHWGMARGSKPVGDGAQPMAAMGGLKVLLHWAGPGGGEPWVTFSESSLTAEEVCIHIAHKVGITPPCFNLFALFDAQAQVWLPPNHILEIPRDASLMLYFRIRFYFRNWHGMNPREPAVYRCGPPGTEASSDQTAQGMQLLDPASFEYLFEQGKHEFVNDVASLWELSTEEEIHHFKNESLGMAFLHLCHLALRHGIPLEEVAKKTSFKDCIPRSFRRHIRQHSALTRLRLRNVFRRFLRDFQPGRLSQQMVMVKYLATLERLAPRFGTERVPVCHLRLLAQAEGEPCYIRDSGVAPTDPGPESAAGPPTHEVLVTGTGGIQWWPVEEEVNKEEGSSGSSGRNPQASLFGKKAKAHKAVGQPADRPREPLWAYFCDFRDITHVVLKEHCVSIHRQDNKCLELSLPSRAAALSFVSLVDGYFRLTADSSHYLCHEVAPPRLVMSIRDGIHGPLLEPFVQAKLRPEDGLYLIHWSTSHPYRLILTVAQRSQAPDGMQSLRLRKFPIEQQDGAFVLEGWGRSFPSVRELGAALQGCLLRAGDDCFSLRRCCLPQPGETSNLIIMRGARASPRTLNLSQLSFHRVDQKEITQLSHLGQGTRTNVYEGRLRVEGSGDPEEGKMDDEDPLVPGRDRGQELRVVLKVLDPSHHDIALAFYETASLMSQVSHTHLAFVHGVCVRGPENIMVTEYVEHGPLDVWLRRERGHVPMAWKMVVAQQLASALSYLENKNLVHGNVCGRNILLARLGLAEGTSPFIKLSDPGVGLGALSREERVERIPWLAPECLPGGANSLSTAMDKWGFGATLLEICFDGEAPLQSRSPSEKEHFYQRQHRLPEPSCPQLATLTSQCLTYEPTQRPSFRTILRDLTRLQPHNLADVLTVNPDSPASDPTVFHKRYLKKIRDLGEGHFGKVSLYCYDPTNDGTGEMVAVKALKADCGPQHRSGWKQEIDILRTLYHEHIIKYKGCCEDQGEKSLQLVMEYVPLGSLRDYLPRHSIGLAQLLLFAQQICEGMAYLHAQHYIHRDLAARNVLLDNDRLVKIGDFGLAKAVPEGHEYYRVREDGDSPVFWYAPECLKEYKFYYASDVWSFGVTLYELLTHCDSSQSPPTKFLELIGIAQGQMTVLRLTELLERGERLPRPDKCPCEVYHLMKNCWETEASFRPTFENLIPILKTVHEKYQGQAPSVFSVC
Chain of EGFR kinase (P00533 25-1210): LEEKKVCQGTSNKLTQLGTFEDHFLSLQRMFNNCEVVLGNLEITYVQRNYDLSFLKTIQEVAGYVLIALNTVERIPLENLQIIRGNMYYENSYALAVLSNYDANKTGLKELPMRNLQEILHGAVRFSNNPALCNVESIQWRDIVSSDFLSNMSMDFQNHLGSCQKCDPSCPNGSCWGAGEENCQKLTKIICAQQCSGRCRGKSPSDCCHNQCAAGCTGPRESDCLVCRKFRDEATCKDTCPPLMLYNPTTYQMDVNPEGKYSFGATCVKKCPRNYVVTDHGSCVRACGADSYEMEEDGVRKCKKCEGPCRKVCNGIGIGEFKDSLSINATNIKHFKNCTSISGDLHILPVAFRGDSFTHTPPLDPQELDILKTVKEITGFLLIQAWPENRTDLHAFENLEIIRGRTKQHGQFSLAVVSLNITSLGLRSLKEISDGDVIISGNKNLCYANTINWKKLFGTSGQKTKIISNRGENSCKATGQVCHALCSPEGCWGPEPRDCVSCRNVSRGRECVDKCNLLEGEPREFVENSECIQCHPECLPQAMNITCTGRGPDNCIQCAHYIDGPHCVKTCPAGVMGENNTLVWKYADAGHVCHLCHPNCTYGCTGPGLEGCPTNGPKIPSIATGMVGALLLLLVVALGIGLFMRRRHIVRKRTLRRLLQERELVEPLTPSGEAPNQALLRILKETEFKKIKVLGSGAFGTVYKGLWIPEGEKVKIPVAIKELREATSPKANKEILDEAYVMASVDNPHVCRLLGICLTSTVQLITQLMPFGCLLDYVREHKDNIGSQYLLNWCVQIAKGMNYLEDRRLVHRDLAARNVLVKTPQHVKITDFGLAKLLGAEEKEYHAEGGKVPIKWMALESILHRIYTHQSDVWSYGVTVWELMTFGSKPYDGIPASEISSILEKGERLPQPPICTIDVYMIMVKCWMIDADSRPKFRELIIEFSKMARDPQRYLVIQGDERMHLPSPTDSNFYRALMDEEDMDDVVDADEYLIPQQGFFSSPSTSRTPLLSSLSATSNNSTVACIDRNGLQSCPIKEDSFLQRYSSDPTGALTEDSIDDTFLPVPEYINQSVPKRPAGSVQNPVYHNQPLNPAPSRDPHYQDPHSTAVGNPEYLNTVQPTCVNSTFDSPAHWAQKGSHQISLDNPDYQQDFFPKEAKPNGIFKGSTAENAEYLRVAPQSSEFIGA

In the case of `COc1cc2ncnc(Nc3ccc(O)cc3)c2cc1OC` [JANEX-1], the IC50 in data set [1] is 78000 nM. In data set [2], the “activity against JAK1” value was “without altering the activity”. For the same molecule, the “activity against JAK2” value in data set [3] is “without altering the activity”.

In the case of `CC(C)N(CCC(=O)c1ccc2ccccc2c1)Cc1ccccc1` [ZM 39923 HCl], the “activity against JAK2” value in data set [3] is reported as “almost no activity”.

For the molecule `N#Cc1ccc(COc2ccc(-c3cccc4nc(NC(=O)C5CC5)nn34)cc2)cn1` [GLPG0634 analogue], the IC50 in data set [4] is 116 nM; in [1], 810 nM; in data set [2], 10 nM; in [3] (cell-free assay for AZD1480 and AT9283), 28 nM.

In the case of `NC(=O)c1nc(-c2c(F)cccc2Cl)oc1Nc1ccc(C(=O)N2CCOCC2)cc1` [SAR-20347], the IC50 in [4] was 0.6 nM; in data set [1] (cell-free assay for AT9283), 41 nM; in data set [2], 23 nM.

Take Oclacitinib maleate: the “inhibition of a panel of 38 non-JAK kinases” value in [5] was “does not inhibit”.

Consider `COc1cc2ncnc(Nc3cc(Br)c(O)c(Br)c3)c2cc1OC` [WHI-P97], for which the IC50 in [6] is 2500 nM.

For `N#CCNC(=O)c1ccc(-c2ccnc(Nc3ccc(N4CCOCC4)cc3)n2)cc1` [Momelotinib], the “inner ear toxicity: ABR thresholds before and after treatment” value in data set [7] (8 kHz, 16 kHz and 32 kHz, 14-day Momelotinib protocol) was “No differences”. For the same molecule, the “general toxicity in vivo” value in data set [7] (oral, up to 100 mg/kg/day over a 14-day regimen, 4-week-old C57BL/6 mice) is “not toxic”. Further, in [8] (0.2 μM Momelotinib alone, cochlear explants), the “toxicity to HCs of compound alone” value is recorded as “did not show toxicity”. Also, the “hair cell loss at the middle turn region (phalloidin images)” value in data set [8] (cotreated with MMB 0.2 μM and gentamicin (GM), 24 h, P3 FVB cochlear explants) is “minimal levels of hair cell loss”. Also, the “protection against aminoglycoside-induced hair cell loss (OHC number per 100 μm length of cochlear middle turn)” value in data set [8] (cotreatment with Momelotinib and gentamicin or kanamycin, n=5 per group) was “full protection”. Also, the “protection of mechanosensory hair cells against gentamicin (GM)” value in [9] (then GM 100 uM for 1 hour) was “protected”. For the same molecule, the “protection of mechanosensory hair cells against kanamycin (KM)” value in data set [9] (then KM 200 or 300 uM for 1 hour or 150 uM for 6 hours) is recorded as “protected”.

Take `CC1(C)CN(C(=O)c2ccc(-c3cccc4nc(NC(=O)C5CC5)nn34)cc2)C1` [Solcitinib]: the “selectivity for JAK1 over TYK2” value in data set [4] is 23 fold. Besides, the “selectivity for JAK1 over JAK3” value in data set [1] is on record as 55 fold. The IC50 in data set [2] was 8 to 9 nM. Moreover, in data set [3], the “selectivity for JAK1 over JAK2” value is 11 fold.

Regarding `COc1cc2ncnc(Nc3ccc(O)c(Br)c3)c2cc1OC` [WHI-P154], the “activity against JAK1” value in [2] is “no activity”. In addition, the “activity against JAK2” value in data set [3] is “no activity”.

(Values after patent US11766440B1, “Methods for the prevention and treatment of hearing loss” (Ting Therapeutics LLC, priority 2020, dated 2023).)
